Counter-ions that a name gives are not always drawn.
Assays:
[1] = test system: plasma renin activity; test: Ex vivo plasma renin activity (PRA) test after oral administration; type: in vivo, Macaca fascicularis; conditions: for inhibition at 1 mg/kg: Macaca fascicularis, po, 4 h, read-out: Macaca fascicularis plasma renin activity, PPA inhibitory activity (%, n = 3-7); for Macaca fascicularis plasma renin activity, PPA inhibitory activity (%, n = 3-7): male macaca fascicularis, 1 mg/kg orally in 0.5% methylcellulose, plasma 4 hr after administration, amended with vehicle group
Experimental: Male macaca fascicularis was used. […] PRA was calculated by the following formula.

[2] = target: T1, Human renin (Homo sapiens, UniProt P00797); test: Human renin inhibition; angiotensin I formed from angiotensinogen quantified by EIA; conditions: for inhibition at 0.1 µM: read-out: Human renin inhibitory activity, inhibitory activity (%) at 0.1 μM; for Human renin inhibitory activity, inhibitory activity (%) at 0.1 μM: 0.1 μM test compound, substrate human angiotensinogen, 37° C. 30 min
T1 sequence (P00797 67-406): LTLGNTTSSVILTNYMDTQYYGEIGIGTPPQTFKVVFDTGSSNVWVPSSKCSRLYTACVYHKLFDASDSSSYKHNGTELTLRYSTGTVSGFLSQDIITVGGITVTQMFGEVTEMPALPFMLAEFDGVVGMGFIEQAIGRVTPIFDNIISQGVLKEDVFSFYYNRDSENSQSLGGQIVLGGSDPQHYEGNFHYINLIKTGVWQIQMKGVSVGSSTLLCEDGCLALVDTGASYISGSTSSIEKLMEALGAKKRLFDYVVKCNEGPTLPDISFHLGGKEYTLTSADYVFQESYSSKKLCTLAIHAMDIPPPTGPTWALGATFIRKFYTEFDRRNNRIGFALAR
Experimental: As a substrate for renin activity measurement, the angiotensinogen mentioned in (5) above was used. 1 μl each of the test compound (containing 100% DMSO) was added to each well of a 384-well plate (ABgene). Renin was diluted with a buffer solution for reaction (20 mM sodium phosphate (pH 7.4)) to a concentration of 57 pM, and 14 μl each of the dilution was added to each well. The dilution was left to stand at 37° C. for 10 min, and then 5 μl of each of a 6 μM solution of substrate angiotensinogen was added to each well to initiate the reaction. […] The amount of angiotensin I produced by an enzyme reaction was quantified by Enzyme Immuno Assay (EIA) described below.
Anti-angiotensin I antibody (Peninsula Laboratories Inc.) diluted 5,000-fold with PBS was added to each well of a 384 well black plate (Nalge Nunc International Co., Ltd.) by 25 μl, and left standing overnight at 4° C. to immobilize the antibody in the plate. The antibody solution was removed, PBS solution (100 μl) containing 1% BSA was added to each well, and the mixture was left standing at room temperature for 2 hr for blocking. The blocking solution was removed, and each well was washed 5 times with 100 μl of 0.05% Tween20-PBS. […] Then, a biotinated angiotensin I solution (AnaSpec, 15 μl) prepared to 1.6 nM with a buffer [20 mM tris-hydrochloric acid (pH 7.4), 150 mM sodium chloride, 0.01% BSA, 0.05% Tween20] was added to each well, mixed with a plate mixer and left standing at room temperature for 1 hr. The solutions were removed from each well, and each well was washed 5 times with 100 μl of 0.05% Tween20-PBS. Horseradish peroxydase Streptavidin (PIERCE Biotechnology inc., 25 μl) diluted to 100 ng/ml with a buffer [20 mM tris-hydrochloric acid (pH 7.4), 150 mM sodium chloride, 0.1% BSA, 0.05% Tween 20] was added to each well and the mixture was left standing at room temperature for 30 min. The solutions were removed from each well, and each well was washed 5 times with 100 μl of 0.05% Tween20-PBS. SuperSignal ELISA femto Maximum Sensitivity Substrate (PIERCE Biotechnology Inc.) was added by 25 μl and luminescence intensity was measured by EnVision (Perkin Elmer Inc.). An analytical curve was drawn from the luminescence intensity of wells containing an angiotensin I standard solution, and the amount of angiotensin I produced by an enzyme reaction was calculated and used as an index of renin activity.

Molecule	inhibition at 1 mg/kg [1]	inhibition at 0.1 µM [2]	Macaca fascicularis plasma renin activity, PPA inhibitory activity (%, n = 3-7) [1]	Human renin inhibitory activity, inhibitory activity (%) at 0.1 μM [2]
COCCCCc1c(C(=O)N(CC(C)C)[C@@H]2CNC[C@H](C(=O)N3CCOCC3)C2)nnn1-c1ccccc1F [Example 233, 1-(2-fluorophenyl)-5-(4-methoxybutyl)-N-(2-methylpropyl)-N-[(3S,5R)-5-(morpholin-4-ylcarbonyl)piperidin-3-yl]-1H-1,2,3-triazole-4-carboxamide hydrochloride]	67%	97%	–	–
COCCCCc1c(C(=O)N(CC(C)C)[C@@H]2CNC[C@H](C(=O)N3CCOCC3)C2)nnn1-c1ccccc1Cl [Example 235, 1-(2-chlorophenyl)-5-(4-methoxybutyl)-N-(2-methylpropyl)-N-[(3S,5R)-5-(morpholin-4-ylcarbonyl)piperidin-3-yl]-1H-1,2,3-triazole-4-carboxamide hydrochloride]	62%	97%	–	–
N-{(3S,5R)-5-[(1R)-1-hydroxyethyl]piperidin-5-yl}-1-(4-methoxybutyl)-N-(2-methylpropyl)-1H-benzimidazole-2-carboxamide carboxamide dihydrochloride [Example 74-2]	–	–	54%	96%
N-{(3S,5R)-5-[(1S)-1-hydroxyethyl]piperidin-5-yl}-1-(4-methoxybutyl)-N-(2-methylpropyl)-1H-benzimidazole-2-carboxamide dihydrochloride [Example 74-1]	–	–	90%	94%
N-{(3S, 5R)-5-[(1R)-1-hydroxypropyl]piperidin-5-yl}-1-(4-methoxybutyl)-N-(2-methylpropyl)-1H-benzimidazole-2-carboxamide dihydrochloride [Example 75-2]	–	–	71%	90%
N-{(3S, 5R)-5-[(1S)-1-hydroxypropyl]piperidin-5-yl}-1-(4-methoxybutyl)-N-(2-methylpropyl)-1H-benzimidazole-2-carboxamide dihydrochloride [Example 75-1]	–	–	86%	95%
